These results are taken from patent publication US20220169654A1, “New Organic Compounds” (Servier Pharmaceuticals LLC, priority 2020, published 2022).

Assay [1] deals with HCT116 MTAP+/+. Put plainly: Inhibition of cellular proliferation, 4 days, Cell Titer Glo, HCT116 MTAP+/+. The assay is classed as cell-based. Particulars: Homo sapiens, HCT-116, 96 h, IC50 bin with Max Inh., read-out: 4 Day Relative Growth Inhibition (MTAP +/+). The essentials: (§1)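 Isogenic HCT116 pair differing only in MTAP status, plated 24 h before treatment with 10-point 3-fold dilutions; 4 days at 37° C./5% CO2. Cell Titer Glo luminescence, blank-subtracted and normalised to 0.2% DMSO control, gives percentage proliferation vs log molar concentration for IC50.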

Assay [2] deals with T1, MAT2A homodimer (Homo sapiens, UniProt P31153).
T1 construct: inferred from Ni sepharose purification with imidazole elution; made in house; host or cells: Sf9 insect cells, baculovirus (Bac to Bac, pFASTBAC1)
Briefly: MAT2A inhibition (biochemical, liberated phosphate, PiColorLock Gold). The following applies: recombinant MAT2A homodimer; IC50 bin with Max Inh.; read-out: Enzyme Inhibition Bin. The essentials: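 Baculovirus/Sf9-expressed, Ni-purified MAT2A (4 μg/mL) preincubated with compound 60 min at 25 °C in Tris pH 8.0/KCl/MgCl2 buffer. Reaction started with 500 μM ATP and 400 μM L-methionine (substrate-mix concentrations), run 60 min at 25 °C. Phosphate measured colorimetrically against a phosphate standard curve to give IC50.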

For assay [3], the system named is HCT116 MTAP−/−. Put plainly: Inhibition of cellular proliferation, 4 days, Cell Titer Glo, HCT116 MTAP−/−. The following applies: Homo sapiens, HCT-116, 96 h, IC50 bin with Max Inh., read-out: 4 Day Relative Growth Inhibition (MTAP −/−). The assay is classed as cell-based. In a few lines:
as §1

Assay [4] deals with SAM in HCT116 human colon carcinoma cell line with MTAP gene deleted (MTAP −/−). Briefly: Cellular assay of target engagement (SAM), LC-MS/MS, 72 hrs. The assay is classed as cell-based. Particulars: HCT-116, IC50 bin with Max Inh., read-out: Cell 72 h SAM Inhibition (MTAP −/−). The essentials:
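MTAP-deleted HCT116 cells plated 24 h, then given 10-point 3-fold dilutions for 72 hrs at 37° C. Intracellular SAM extracted in cold 80% methanol with 1M acetic acid and d3-SAM standard, quantified by LC-MS/MS (MRM m/z 399.2→250.1); IC50 derived.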

T1 sequence (P31153 whole entry): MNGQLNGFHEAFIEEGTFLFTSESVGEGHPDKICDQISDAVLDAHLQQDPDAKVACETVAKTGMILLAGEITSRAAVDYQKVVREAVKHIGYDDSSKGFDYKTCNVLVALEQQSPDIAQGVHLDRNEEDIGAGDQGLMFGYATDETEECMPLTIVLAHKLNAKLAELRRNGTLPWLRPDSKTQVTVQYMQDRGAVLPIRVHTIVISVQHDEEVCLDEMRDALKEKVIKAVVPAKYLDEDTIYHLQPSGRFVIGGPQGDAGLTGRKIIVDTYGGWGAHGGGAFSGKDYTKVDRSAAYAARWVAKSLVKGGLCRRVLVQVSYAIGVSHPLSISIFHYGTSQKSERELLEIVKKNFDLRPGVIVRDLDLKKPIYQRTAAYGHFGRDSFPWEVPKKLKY

On to `Cn1nc2ccc(-n3nc4c(C(F)(F)F)cn(CC5CC5)c4c(-c4ccc(C5CC5)nc4)c3=O)cc2c1C(F)(F)F` [Example 242, 5-(cyclopropylmethyl)-4-(6-cyclopropylpyridin-3-yl)-2-(2-methyl-3-(trifluoromethyl)-2H-indazol-5-yl)-7-(trifluoromethyl)-2,5-dihydro-3H-pyrrolo[3,2-c]pyridazin-3-one], for which the IC50 in assay [1] is 100 to 1000 nM; in assay [2], under 100 nM; in assay [3] it was 100 to 1000 nM; in assay [4] it was 100 to 1000 nM.
For `Cn1cc2cc(-n3nc4c(C#C[Si](C)(C)C)cn(CC5CC5)c4c(-c4ccc(C5CC5)nc4)c3=O)ccc2n1` [Example 243, 5-(cyclopropylmethyl)-4-(6-cyclopropylpyridin-3-yl)-2-(2-methyl-2H-indazol-5-yl)-7-((trimethylsilyl)ethynyl)-2,5-dihydro-3H-pyrrolo[3,2-c]pyridazin-3-one], the IC50 is over 1000 nM in assay [1], under 100 nM in assay [2], under 100 nM in assay [3] and under 100 nM in assay [4].
Consider `C#Cc1cn(CC2CC2)c2c(-c3ccc(C4CC4)nc3)c(=O)n(-c3ccc4nn(C)cc4c3)nc12` [Example 244, 5-(cyclopropylmethyl)-4-(6-cyclopropylpyridin-3-yl)-7-ethynyl-2-(2-methyl-2H-indazol-5-yl)-2,5-dihydro-3H-pyrrolo[3,2-c]pyridazin-3-one], for which the IC50 is 100 to 1000 nM in assay [1], under 100 nM in assay [2], under 100 nM in assay [3] and under 100 nM in assay [4].
For `Cn1cc2cc(-n3nc4c(C#CC(F)(F)F)cn(CC5CC5)c4c(-c4ccc(C5CC5)nc4)c3=O)ccc2n1` [Example 245, 5-(cyclopropylmethyl)-4-(6-cyclopropylpyridin-3-yl)-2-(2-methyl-2H-indazol-5-yl)-7-(3,3,3-trifluoroprop-1-yn-1-yl)-2,5-dihydro-3H-pyrrolo[3,2-c]pyridazin-3-one], the IC50 in assay [1] was over 1000 nM; in assay [2] it was under 100 nM; in assay [3] it was 100 to 1000 nM; in assay [4], over 1000 nM.
For `Cn1cc2cc(-n3nc4c(C(F)(F)F)cn(CC5CC5)c4c(-c4ccc(C5CC5)nc4)c3=O)ccc2n1` [Example 246, 5-(cyclopropylmethyl)-4-(6-cyclopropylpyridin-3-yl)-2-(2-methyl-2H-indazol-5-yl)-7-(trifluoromethyl)-2,5-dihydro-3H-pyrrolo[3,2-c]pyridazin-3-one], the IC50 in assay [1] is 100 to 1000 nM; in assay [2], under 100 nM; in assay [3], under 100 nM; in assay [4], under 100 nM.
Consider `CCc1cn(CC2CC2)c2c(-c3ccc(C4CC4)nc3)c(=O)n(-c3ccc4nn(C)cc4c3)nc12` [Example 247, 5-(cyclopropylmethyl)-4-(6-cyclopropylpyridin-3-yl)-7-ethyl-2-(2-methyl-2H-indazol-5-yl)-2,5-dihydro-3H-pyrrolo[3,2-c]pyridazin-3-one], for which the IC50 was over 1000 nM in assay [1], under 100 nM in assay [2], under 100 nM in assay [3] and under 100 nM in assay [4].
For `CC(C)c1cn(CC2CC2)c2c(-c3ccc(C4CC4)nc3)c(=O)n(-c3ccc4nn(C)cc4c3)nc12` [Example 248, 5-(cyclopropylmethyl)-4-(6-cyclopropylpyridin-3-yl)-7-isopropyl-2-(2-methyl-2H-indazol-5-yl)-2,5-dihydro-3H-pyrrolo[3,2-c]pyridazin-3-one], the IC50 was over 1000 nM in assay [1], under 100 nM in assay [2], under 100 nM in assay [3] and under 100 nM in assay [4].
As for `C[C@@H](O)c1cn(CC2CC2)c2c(-c3ccc(C4CC4)nc3)c(=O)n(-c3ccc4nn(C)cc4c3)nc12` [Example 249, (R)-5-(cyclopropylmethyl)-4-(6-cyclopropylpyridin-3-yl)-7-(1-hydroxyethyl)-2-(2-methyl-2H-indazol-5-yl)-2,5-dihydro-3H-pyrrolo[3,2-c]pyridazin-3-one], the IC50 in assay [1] was over 1000 nM; in assay [2], under 100 nM; in assay [3], under 100 nM; in assay [4] it was under 100 nM.
On to `C[C@H](O)c1cn(CC2CC2)c2c(-c3ccc(C4CC4)nc3)c(=O)n(-c3ccc4nn(C)cc4c3)nc12` [Example 250, (S)-5-(cyclopropylmethyl)-4-(6-cyclopropylpyridin-3-yl)-7-(1-hydroxyethyl)-2-(2-methyl-2H-indazol-5-yl)-2,5-dihydro-3H-pyrrolo[3,2-c]pyridazin-3-one], for which the IC50 in assay [1] was over 1000 nM; in assay [2] it was under 100 nM; in assay [3] it was under 100 nM; in assay [4] it was under 100 nM.
As for `Cn1cc2cc(-n3nc4c(C#N)c(Cl)n(CC5CC5)c4c(-c4ccc(C5CC5)nc4)c3=O)ccc2n1` [Example 251, 6-chloro-5-(cyclopropylmethyl)-4-(6-cyclopropylpyridin-3-yl)-2-(2-methyl-2H-indazol-5-yl)-3-oxo-3,5-dihydro-2H-pyrrolo[3,2-c]pyridazine-7-carbonitrile], the IC50 in assay [1] is 100 to 1000 nM; in assay [2] it was under 100 nM; in assay [3], under 100 nM; in assay [4], under 100 nM.
`Cn1cc2cc(-n3nc4c(C#N)cn(CC5CC5)c4c(-c4ccc([C@@H]5CC5(F)F)nc4)c3=O)ccc2n1` [Example 252, (S)-5-(cyclopropylmethyl)-4-(6-(2,2-difluorocyclopropyl)pyridin-3-yl)-2-(2-methyl-2H-indazol-5-yl)-3-oxo-3,5-dihydro-2H-pyrrolo[3,2-c]pyridazine-7-carbonitrile]: the IC50 was over 1000 nM in assay [1], under 100 nM in assay [2], 100 to 1000 nM in assay [3] and 100 to 1000 nM in assay [4].
For `Cn1cc2cc(-n3nc4c(C#N)cn(CC5CC5)c4c(-c4ccc([C@H]5CC5(F)F)nc4)c3=O)ccc2n1` [Example 253, (R)-5-(cyclopropylmethyl)-4-(6-(2,2-difluorocyclopropyl)pyridin-3-yl)-2-(2-methyl-2H-indazol-5-yl)-3-oxo-3,5-dihydro-2H-pyrrolo[3,2-c]pyridazine-7-carbonitrile], the IC50 in assay [1] is over 1000 nM; in assay [2], under 100 nM; in assay [3] it was under 100 nM; in assay [4], 100 to 1000 nM.
As to `Cn1cc2cc(-n3nc4c(C#N)cn(CC5CC5)c4c(-c4ccc(C5(C)CC5)nc4)c3=O)ccc2n1` [Example 254, 5-(cyclopropylmethyl)-2-(2-methyl-2H-indazol-5-yl)-4-[6-(1-methylcyclopropyl)pyridin-3-yl]-3-oxo-2H,3H,5H-pyrrolo[3,2-c]pyridazine-7-carbonitrile], the IC50 in assay [1] was 100 to 1000 nM; in assay [2] it was under 100 nM; in assay [3], 100 to 1000 nM; in assay [4], 100 to 1000 nM.
Turning to `Cc1ccc(-c2c(=O)n(-c3ccc4nn(C)cc4c3)nc3c(CO)cn(CC4CC4)c23)cn1` [Example 255, 5-(cyclopropylmethyl)-7-(hydroxymethyl)-2-(2-methyl-2H-indazol-5-yl)-4-(6-methylpyridin-3-yl)-2,5-dihydro-3H-pyrrolo[3,2-c]pyridazin-3-one], the IC50 in assay [1] is 100 to 1000 nM; in assay [2], under 100 nM; in assay [3], under 100 nM; in assay [4] it was under 100 nM.
